# Source: PMC5995566 (Biochemistry, 2017)
# No end group written: not given here.
# What was measured:
# human S100A5 (hA5) = target: T1, human S100A5 (hA5) (Homo sapiens, UniProt P33763); test: ITC of peptide binding to human S100A5; details: 2 mM CaCl2, pH 7.4
# T1 sequence (P33763 1-92): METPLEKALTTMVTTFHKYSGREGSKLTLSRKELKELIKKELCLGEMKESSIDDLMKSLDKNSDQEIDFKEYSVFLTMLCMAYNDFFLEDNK
# human S100A6 (hA6) = human S100A6 (hA6) (Homo sapiens, UniProt P06703); test: ITC of peptide binding to human S100A6; details: single-site model
# hA5 A83m = test: ITC of peptide binding to hA5 A83m mutant; parameters: species or system Homo sapiens; details: single ancestral reversion in hA5
# S100A6 orthologs = test: ITC of peptide binding to S100A6 orthologs; details: 2 mM CaCl2, pH 7.4
# [1] = system: ancA6 (last common ancestor of S100A6 orthologs); test: ITC of peptide binding to reconstructed ancestor ancA6
sequence,measurement,setting,value
SEGLMNVLKKIYEDGDDDMKRTINKAWVESR [SIP],binding to hA5 (in words),human S100A5 (hA5),did not bind
same,fx comp,"human S100A6 (hA6); ITC fit parameter, same buffer",1.5 ± 0.1
same,ΔH°,"human S100A6 (hA6); ITC, 25 mM TES, 100 mM NaCl, 2 mM CaCl2, 1 mM TCEP, pH 7.4, Bayesian fit",2.9 ± 0.3 kcal/mol
same,binding to hA5 A83m (in words),hA5 A83m,enabled it to bind
same,binding to all S100A6 orthologs (in words),S100A6 orthologs,bound
same,binding to ancA6 (in words),[1],binding
